Test results reported in patent US8304419B2, “Chemical compounds” (priority 2007, dated 2012).
Where a name gives a salt, the structure may show the parent alone.

The compounds below were run on HIV wild type (WTRVA) (assay: HeLa cell assay, wild type virus (WTRVA)). Details: Human immunodeficiency virus 1, HeLa, HeLa cell assay; read-out: IC50 against WTRVA.
Assay type: cell-based, HIV-1
Parameters: scale not given here
In the case of `Cc1nc(Cl)c(C(=O)NCc2ccc(Cl)c(Oc3cc(C#N)cc(C(F)F)c3)c2F)[nH]1` [Example 300, 4-chloro-N-[(4-chloro-3-{[3-cyano-5-(difluoromethyl)phenyl]oxy}-2-fluorophenyl)methyl]-2-methyl-1H-imidazole-5-carboxamide trifluoroacetate], the IC50 is reported as < 0.01 µM. With `N#Cc1cc(Cl)cc(Oc2c(Cl)ccc(CNC(=O)c3[nH]cnc3Cl)c2F)c1Cl` [Example 144, 4-chloro-N-({4-chloro-3-[(2,5-dichloro-3-cyanophenyl)oxy]-2-fluorophenyl}methyl)-1H-imidazole-5-carboxamide] the IC50 was < 0.01 µM. With `N#C/C=C/c1cc(Cl)cc(Oc2c(Cl)ccc(CNC(=O)c3[nH]cnc3Cl)c2F)c1` [Example 291, 4-chloro-N-{[4-chloro-3-({3-chloro-5-[(E)-2-cyanoethenyl]phenyl}oxy)-2-fluorophenyl]methyl}-1H-imidazole-5-carboxamide] the IC50 was < 0.01 µM. For `N#Cc1cc(Cl)cc(Oc2c(Cl)ccc(CNC(=O)c3[nH]cnc3Br)c2F)c1` [Example 133, 4-bromo-N-({4-chloro-3-[(3-chloro-5-cyanophenyl)oxy]-2-fluorophenyl}methyl)-1H-imidazole-5-carboxamide trifluoroacetate], the IC50 was < 0.01 µM. `N#Cc1cc(Cl)cc(Oc2c(Cl)ccc(Cn3cnc4nc[nH]c4c3=O)c2F)c1` [Example 368, 3-chloro-5-({6-chloro-2-fluoro-3-[(6-oxo-6,7-dihydro-1H-purin-1-yl)methyl]phenyl}oxy)benzonitrile trifluoroacetate] was tested, and the IC50 was < 0.01 µM. For `N#Cc1cc(Cl)cc(Oc2c(Br)ccc(CNC(=O)c3[nH]c(N)nc3Br)c2F)c1` [Example 237, 2-amino-4-bromo-N-({4-bromo-3-[(3-chloro-5-cyanophenyl)oxy]-2-fluorophenyl}methyl)-1H-imidazole-5-carboxamide trifluoroacetate], the IC50 was < 0.01 µM. In the case of `Cc1nc(Cl)c(C(=O)NCc2ccc(Cl)c(Oc3cc(C#N)cc(C4CC4)n3)c2F)[nH]1` [Example 273, 4-Chloro-N-({4-chloro-3-[(4-cyano-6-cyclopropyl-2-pyridinyl)oxy]-2-fluorophenyl}methyl)-2-methyl-1H-imidazole-5-carboxamide], the IC50 is reported as < 0.01 µM. `CN(C)Cc1cc(C#N)cc(Oc2c(Cl)ccc(CNC(=O)c3[nH]cnc3Cl)c2F)c1` [Example 311, 4-chloro-N-{[4-chloro-3-({3-cyano-5-[(dimethylamino)methyl]phenyl}oxy)-2-fluorophenyl]methyl}-1H-imidazole-5-carboxamide trifluoroacetate] was tested, and the IC50 was < 0.01 µM. In the case of `C=Cc1cc(C#N)cc(Oc2c(Cl)ccc(CNC(=O)c3[nH]cnc3Cl)c2F)c1` [Example 143, 4-chloro-N-({4-chloro-3-[(3-cyano-5-ethenylphenyl)oxy]-2-fluorophenyl}methyl)-1H-imidazole-5-carboxamide], the IC50 is reported as < 0.01 µM. `N#Cc1cc(Cl)cc(Oc2c(Br)ccc(CNC(=O)c3nc(N)[nH]c3Cl)c2F)c1` [Example 239, 2-amino-N-({4-bromo-3-[(3-chloro-5-cyanophenyl)oxy]-2-fluorophenyl}methyl)-4-chloro-1H-imidazole-5-carboxamide] was tested, and the IC50 was < 0.01 µM. In the case of `Cc1nc(Cl)c(C(=O)NCc2ccc(C3CC3)c(Oc3cc(Cl)cc(C#N)c3)c2F)[nH]1` [Example 270, 4-Chloro-N-({3-[(3-chloro-5-cyanophenyl)oxy]-4-cyclopropyl-2-fluorophenyl}methyl)-2-methyl-1H-imidazole-5-carboxamide], the IC50 is reported as < 0.01 µM.

Same assay, conditions: Human immunodeficiency virus 1, HeLa, HeLa-CD4-LTR-β-gal cells, wild type virus; read-out: WTRVA activity level
`CN1CCCC1CCOc1ccc2[nH]c(C(=O)NCc3ccc(Cl)c(Oc4cc(Cl)cc(C#N)c4)c3F)cc2c1` (stereo not drawn) [Example 104, N-({4-chloro-3-[(3-chloro-5-cyanophenyl)oxy]-2-fluorophenyl}methyl)-5-{[2-(1-methyl-2-pyrrolidinyl)ethyl]oxy}-1H-indole-2-carboxamide] was tested, and the IC50 was < 0.01 µM. In the case of `Cc1nnsc1C(=O)NCc1ccc(Cl)c(Oc2cc(Cl)cc(C#N)c2)c1F` [Example 91, N-({4-chloro-3-[(3-chloro-5-cyanophenyl)oxy]-2-fluorophenyl}methyl)-4-methyl-1,2,3-thiadiazole-5-carboxamide], the IC50 is reported as < 0.01 µM. `N#Cc1cc(Cl)cc(Oc2c(Cl)ccc(CNC(=O)c3cc4ccc(N)cc4[nH]3)c2F)c1` [Example 123, 6-amino-N-({4-chloro-3-[(3-chloro-5-cyanophenyl)oxy]-2-fluorophenyl}methyl)-1H-indole-2-carboxamide trifluoroacetate] was tested, and the IC50 was < 0.01 µM. With `CCCCc1nc(Cl)c(C(=O)NCc2ccc(Cl)c(Oc3cc(Cl)cc(C#N)c3)c2F)[nH]1` [Example 140, 2-butyl-4-chloro-N-({4-chloro-3-[(3-chloro-5-cyanophenyl)oxy]-2-fluorophenyl}methyl)-1H-imidazole-5-carboxamide trifluoroacetate] the IC50 was < 0.01 µM. For `CCN(CC)S(=O)(=O)c1c[nH]c(C(=O)NCc2ccc(Cl)c(Oc3cc(Cl)cc(C#N)c3)c2F)c1` [Example 76, N-({4-chloro-3-[(3-chloro-5-cyanophenyl)oxy]-2-fluorophenyl}methyl)-4-[(diethylamino)sulfonyl]-1H-pyrrole-2-carboxamide trifluoroacetate], the IC50 was 0.01 to 1 µM. `N#Cc1cc(Cl)cc(Oc2c(Cl)ccc(CNC(=O)c3[nH]cnc3Br)c2F)c1` [Example 133, 4-bromo-N-({4-chloro-3-[(3-chloro-5-cyanophenyl)oxy]-2-fluorophenyl}methyl)-1H-imidazole-5-carboxamide trifluoroacetate] was tested, and the IC50 was < 0.01 µM. `CS(=O)(=O)c1ccc(C(=O)NCc2ccc(Cl)c(Oc3cc(Cl)cc(C#N)c3)c2F)c(Cl)c1` [Example 16, 2-chloro-N-({4-chloro-3-[(3-chloro-5-cyanophenyl)oxy]-2-fluorophenyl}methyl)-4-(methylsulfonyl)benzamide] gave an IC50 of 0.01 to 1 µM. In the case of `CC(C)(C)OC(=O)Nc1cccc2cc(C(=O)NCc3ccc(Cl)c(Oc4cc(Cl)cc(C#N)c4)c3F)[nH]c12` [Example 112, 1,1-dimethylethyl (2-{[({4-chloro-3-[(3-chloro-5-cyanophenyl)oxy]-2-fluorophenyl}methyl)amino]carbonyl}-1H-indol-7-yl)carbamate], the IC50 is reported as 0.01 to 1 µM. In the case of `N#Cc1cc(Cl)cc(Oc2c(Cl)ccc(CNC(=O)c3cnccn3)c2F)c1` [Example 87, N-({4-chloro-3-[(3-chloro-5-cyanophenyl)oxy]-2-fluorophenyl}methyl)-2-pyrazinecarboxamide trifluoroacetate], the IC50 is reported as < 0.01 µM. `N#Cc1cc(Cl)cc(Oc2c(Cl)ccc(CNC(=O)c3[nH]c4cc(O)ccc4c3Br)c2F)c1` [Example 61, 3-bromo-N-({4-chloro-3-[(3-chloro-5-cyanophenyl)oxy]-2-fluorophenyl}methyl)-6-hydroxy-1H-indole-2-carboxamide trifluoroacetate] was tested, and the IC50 was < 0.01 µM. `N#Cc1cc(Cl)cc(Oc2c(Cl)ccc(CNC(=O)c3cc4ccc(Cl)cc4[nH]3)c2F)c1` [Example 110, 6-chloro-N-({4-chloro-3-[(3-chloro-5-cyanophenyl)oxy]-2-fluorophenyl}methyl)-1H-indole-2-carboxamide] showed an IC50 of 0.01 to 1 µM. In the case of `N#Cc1cc(Cl)cc(Oc2c(Cl)ccc(CNC(=O)c3c[nH]cn3)c2F)c1` [Example 84, N-({4-chloro-3-[(3-chloro-5-cyanophenyl)oxy]-2-fluorophenyl}methyl)-1H-imidazole-4-carboxamide trifluoroacetate], the IC50 is reported as < 0.01 µM. In the case of `COc1ccc(C(=O)NCc2ccc(Cl)c(Oc3cc(Cl)cc(C#N)c3)c2)c(OC)c1` [Example 6, N-({4-chloro-3-[(3-chloro-5-cyanophenyl)oxy]phenyl}methyl)-2,4-bis(methyloxy)benzamide], the IC50 is reported as 0.01 to 1 µM. Work on `COc1ccc2[nH]c(C(=O)NCc3ccc(Cl)c(Oc4cc(Cl)cc(C#N)c4)c3F)c(NC(C)=O)c2c1` [Example 56, 3-(acetylamino)-N-({4-chloro-3-[(3-chloro-5-cyanophenyl)oxy]-2-fluorophenyl}methyl)-5-(methyloxy)-1H-indole-2-carboxamide trifluoroacetate] yielded an IC50 of 0.01 to 1 µM. With `CC(C)(C)OC(=O)N1CCC[C@H]1C(=O)Nc1ccc2[nH]c(C(=O)NCc3ccc(Cl)c(Oc4cc(Cl)cc(C#N)c4)c3F)cc2c1` [Example 117, 1,1-dimethylethyl (2S)-2-{[(2-{[({4-chloro-3-[(3-chloro-5-cyanophenyl)oxy]-2-fluorophenyl}methyl)amino]carbonyl}-1H-indol-5-yl)amino]carbonyl}-1-pyrrolidinecarboxylate] the IC50 was < 0.01 µM. With `N#Cc1cc(Cl)cc(Oc2c(Cl)ccc(CNC(=O)c3csnn3)c2F)c1` [Example 90, N-({4-chloro-3-[(3-chloro-5-cyanophenyl)oxy]-2-fluorophenyl}methyl)-1,2,3-thiadiazole-4-carboxamide] the IC50 was < 0.01 µM. `N#Cc1cc(Cl)cc(Oc2c(Cl)ccc(CNC(=O)c3cc4cc([N+](=O)[O-])ccc4o3)c2F)c1` [Example 50, N-({4-chloro-3-[(3-chloro-5-cyanophenyl)oxy]-2-fluorophenyl}methyl)-5-nitro-1-benzofuran-2-carboxamide trifluoroacetate] was tested, and the IC50 was 0.01 to 1 µM. With `N#Cc1cc(Cl)cc(Oc2c(Cl)ccc(CNC(=O)c3cc[nH]n3)c2F)c1` [Example 95, N-({4-chloro-3-[(3-chloro-5-cyanophenyl)oxy]-2-fluorophenyl}methyl)-1H-pyrazole-3-carboxamide] the IC50 was 0.01 to 1 µM. Compound `COc1ccc2[nH]c(C(=O)NCc3ccc(Cl)c(Oc4cc(Cl)cc(C#N)c4)c3)cc2c1` [Example 10, N-({4-chloro-3-[(3-chloro-5-cyanophenyl)oxy]phenyl}methyl)-5-(methyloxy)-1H-indole-2-carboxamide] has an IC50 of 0.01 to 1 µM. With `N#Cc1cc(Cl)cc(Oc2c(Cl)ccc(CNC(=O)c3cc4ccccc4o3)c2F)c1` [Example 47, N-({4-chloro-3-[(3-chloro-5-cyanophenyl)oxy]-2-fluorophenyl}methyl)-1-benzofuran-2-carboxamide trifluoroacetate] the IC50 was 0.01 to 1 µM. `N#Cc1cc(Cl)cc(Oc2c(Cl)ccc(CNC(=O)c3cc4ccccc4[nH]3)c2F)c1` [Example 28, N-({4-chloro-3-[(3-chloro-5-cyanophenyl)oxy]-2-fluorophenyl}methyl)-1H-indole-2-carboxamide] was tested, and the IC50 was < 0.01 µM. For `N#Cc1cc(Cl)cc(Oc2c(Cl)ccc(CNC(=O)c3ccc(S(N)(=O)=O)cc3Cl)c2F)c1` [Example 14, 4-(aminosulfonyl)-2-chloro-N-({4-chloro-3-[(3-chloro-5-cyanophenyl)oxy]-2-fluorophenyl}methyl)benzamide], the IC50 was 0.01 to 1 µM.
